Measured values from patent publication US7652153B2, “Caspase inhibitors and uses thereof” (Vertex Pharmaceuticals Incorporated, priority 2004, dated 2010).

Experiments:
[1] = molecular target: T1, caspase-1 (Homo sapiens, UniProt P29466); assay: Caspase-1 enzyme inhibition (Ki, method of Margolin et al.); type: biochemical; settings: Suc-YVAD-pNA substrate 80 μM, 37° C., pH 7.5; read-out: Ki C1
T1 sequence (P29466 120-297 limits assumed): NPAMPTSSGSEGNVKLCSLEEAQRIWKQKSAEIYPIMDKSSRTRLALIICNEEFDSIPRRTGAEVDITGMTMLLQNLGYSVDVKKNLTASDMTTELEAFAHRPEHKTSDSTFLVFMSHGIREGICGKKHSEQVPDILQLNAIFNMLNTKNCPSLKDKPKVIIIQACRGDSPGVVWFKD
T1 sequence (P29466 317-404 limits assumed): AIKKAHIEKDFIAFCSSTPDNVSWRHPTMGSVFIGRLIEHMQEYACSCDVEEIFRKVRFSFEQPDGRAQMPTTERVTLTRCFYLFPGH
Procedure: (§1) Compounds of this invention may be tested using the methods described below.
(§2) In Vitro Assays Enzyme Inhibition
(§3) Ki values for test compounds with caspase-1 and caspase-8 were obtained by the method of Margolin et al. (J. Biol. Chem., 272 pp. 7223-7228 (1997)). Other caspases may be assayed similarly (see, e.g., WO 99/47545). Assays were performed in 10 mM Tris (Sigma Corp, St Louis Mo.) pH 7.5, 1 mM Dithiothreitol (DTT, Research Organic INC, Cleveland, Ohio) and 0.1% CHAPS (Pierce, Rockford Ill.) at 37° C. For caspase-3, a solution of 8% glycerol was added to the assay buffer to improve enzyme stability. A 65 μL aliquot of the assay buffer and 5 μL aliquot of the appropriate dilutions of inhibitor in DMSO where pipetted into a 96 well plate, treated with 10 μL of caspase, then diluted in assay buffer (0.5-40 nM active protein by active site titration). A control containing DMSO but no compound was included for each determination. The plates were then incubated for 15 minutes at 37° C., before addition of the appropriate substrate (20 μL, final concentration 1-4×KM, final assay volume 100 μL) to initiate the reaction. Reaction rates were measured at 37° C. either by following the time dependant increase in absorbance at 405 nm (for the pNA substrates) or in fluorescence (Ex 390, Em 460) (for the AMC substrates). The rates obtained were plotted against inhibitor concentration and the data fit to the Morrison tight-binding equation for competitive inhibitors (Morrison, J. F., Biochem. Biophys. Acta, 185 pp. 269-286 (1969)). The substrates used for the individual assays were as follows:
Caspase-1 Suc-YVAD-pNA (Bachem, King of Prussia, Pa.) (final concentration in the assay 80 μM);

[2] = molecular target: caspase-8 (Homo sapiens, UniProt Q14790); assay: Caspase-8 enzyme inhibition (Ki, method of Margolin et al.); type: biochemical; settings: Ac-DEVD-pNA substrate 80 μM, 37° C., pH 7.5; read-out: Ki C8
Chain of caspase-8 (Q14790 217-374 limits assumed, species assumed): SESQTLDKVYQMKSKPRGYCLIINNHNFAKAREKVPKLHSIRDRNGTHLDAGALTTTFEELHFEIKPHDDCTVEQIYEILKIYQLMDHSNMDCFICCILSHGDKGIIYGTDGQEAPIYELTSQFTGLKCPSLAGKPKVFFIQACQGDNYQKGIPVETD
Chain of caspase-8 (Q14790 385-479 limits assumed, species assumed): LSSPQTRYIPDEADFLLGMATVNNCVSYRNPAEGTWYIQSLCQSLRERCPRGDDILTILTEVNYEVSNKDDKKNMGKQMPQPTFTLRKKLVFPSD
Procedure: as §1, §2, §3
Caspase-8 Ac-DEVD-pNA (Bachem, King of Prussia, Pa.) (final concentration in assay 80 μM).

SMILES	Ki [1] [nM]	Ki [2] [nM]
COc1cccc(C(=O)N[C@@H](CC(F)(F)F)C(=O)N2CCC[C@H]2C(=O)N[C@H](C=O)CC(=O)O)c1C [II-21, (S,S,S)-4-Oxo-(3S)-({1-[4,4,4-trifluoro-(2S)-(2-methyl-3-methoxy-benzoylamino)-butyryl]-pyrrolidine-(2S)-carbonyl}-amino)-butyric acid]	< 10	21 to 30
CCC(=O)Nc1ccc(C(=O)N[C@H](C(=O)N2[C@@H]3CC[C@@H](C3)[C@H]2C(=O)N[C@H](C=O)CC(=O)O)C(C)(C)C)cc1Cl (stereo in doubt) [II-63, (3S)-({2-[(2S)-(3-Chloro-4-propionylamino-benzoylamino)-3,3-dimethyl-butyryl]-2-(1S,4R)-aza-bicyclo[2.2.1]heptane-(3S)-carbonyl}-amino)-4-oxo-butyric acid]	< 10	10 to 20
CC(C)[C@H](NC(=O)c1c(N)cccc1Cl)C(=O)N1CCC[C@H]1C(=O)N[C@H](C=O)CC(=O)O [II-53, (S,S,S)-(3S)-({1-[(2S)-(2-chloro-6-amino-benzoylamino)-3-methyl-butyryl]-pyrrolidine-(2S)-carbonyl}-amino)-4-oxo-butyric acid]	< 10	21 to 30
Cc1ncccc1C(=O)N[C@H](C(=O)N1CCC[C@H]1C(=O)N[C@H](C=O)CC(=O)O)C(C)C [II-15, (S,S,S)-(3S)-[(1-{3-Methyl-(2S)-[(2-methyl-pyridine-3-carbonyl)-amino]-butyryl}-pyrrolidine-(2S)-carbonyl)-amino]-4-oxo-butyric acid]	< 10	21 to 30
CC(C)(C)[C@H](NC(=O)c1cccc(O)c1Cl)C(=O)N1CCC[C@H]1C(=O)N[C@H](C=O)CC(=O)O [II-39, (S,S,S)-(3S)-({1-[(2S)-(2-Chloro-3-hydroxy-benzoylamino)-3,3-dimethyl-butyryl]-pyrrolidine-(2S)-carbonyl}-amino)-4-oxo-butyric acid]	< 10	< 10
COC(=O)Nc1ccc(C(=O)N[C@H](C(=O)N2CCC[C@H]2C(=O)N[C@H](C=O)CC(=O)O)C(C)(C)C)c(Cl)c1 [II-51, (S,S,S)-(3S)-({1-[(2S)-(2-chloro-4-methoxycarbonylamino-benzoylamino)-3,3-dimethyl-butyryl]-pyrrolidine-(2S)-carbonyl}-amino)-4-oxo-butyric acid]	< 10	< 10
Cc1ccncc1C(=O)N[C@H](C(=O)N1CCC[C@H]1C(=O)N[C@H](C=O)CC(=O)O)C(C)C [II-16, (S,S,S)-(3S)-[(1-{3-Methyl-(2S)-[(4-methyl-pyridine-3-carbonyl)-amino]-butyryl}-pyrrolidine-(2S)-carbonyl)-amino]-4-oxo-butyric acid]	< 10	21 to 30
Cc1c(Cl)cccc1C(=O)N[C@H](C(=O)N1CCC[C@H]1C(=O)N[C@H](C=O)CC(=O)O)C(C)C [II-10, (S,S,S)-(3S)-({1-[(2S)-(3-Chloro-2-methyl-benzoylamino)-3-methyl-butyryl]-pyrrolidine-(2S)-carbonyl}-amino)-4-oxo-butyric acid]	< 10	10 to 20
CC(C)[C@H](NC(=O)c1cccc(C(F)(F)F)c1Cl)C(=O)N1CCC[C@H]1C(=O)N[C@H](C=O)CC(=O)O [II-9, (S,S,S)-(3S)-({1-[(2S)-(2-Chloro-3-trifluoromethyl-benzoylamino)-3-methyl-butyryl]-pyrrolidine-(2S)-carbonyl}-amino)-4-oxo-butyric acid]	< 10	10 to 20
CC(C)[C@H](NC(=O)c1cc(Cl)ccc1Cl)C(=O)N1CCC[C@H]1C(=O)N[C@H](C=O)CC(=O)O [II-12, (S,S,S)-(3S)-({1-[(2S)-(2,5-Dichloro-benzoylamino)-3-methyl-butyryl]-pyrrolidine-(2S)-carbonyl}-amino)-4-oxo-butyric acid]	< 10	10 to 20
